The experiment has as its system 138582-337-R-J1-PDC spheroids with HUVEC/MSC, viability. The experiment can be described thus: Anticancer human tumor 138582-337-R-J1-PDC patient-derived Merkel cell tumor cell line growth inhibition [IpAb]. To be noted: for viability, T/C: stronger effect = lower value. Summed up: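 Multi-cell spheroids of 60% tumour cells, 25% HUVEC and 15% MSC in ultra-low-attachment U-bottom wells, treated with agents combined with ipatasertib or abemaciclib. Half-log ranges top out near clinical Cmax, or 10 microM when Cmax is unknown.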

Where “and” joins values, the source holds several entries; their conditions need not be identical. Identical values can stand only once.
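Further: spheroids exposed to compounds for seven days.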
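Wherever viability, T/C is given: 100% = DMSO vehicle control viability.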

A word on the IC50: it is the point on the concentration scale where inhibition reaches its midpoint. Usually viability, T/C stands for the ratio of treated to control. On to `C=CCn1c(=O)c2cnc(Nc3ccc(N4CCN(C)CC4)cc3)nc2n1-c1cccc(C(C)(C)O)n1` + CCN1CCN(Cc2ccc(Nc3ncc(F)c(-c4cc(F)c5nc(C)n(C(C)C)c5c4)n3)nc2)CC1, for which the IC50 by setting is: (curve of first compound, second compound 0.01 µM) above 10 µM; (curve of first compound, second compound 0.0316 µM) above 10 µM; (curve of first compound, second compound 0.1 µM) above 10 µM; (curve of first compound, second compound 0.316 µM) above 10 µM; (curve of first compound, second compound 1 µM) above 10 µM. The viability, T/C reads like this: (second compound 0.01 µM, first compound 0.0316 µM) 105%; (second compound 0.01 µM, first compound 0.1 µM) 95.3%; (second compound 0.01 µM, first compound 0.316 µM) 100%; (second compound 0.01 µM, first compound 1 µM) 90.4%; (second compound 0.01 µM, first compound 3.16 µM) 117%; (second compound 0.01 µM, first compound 10 µM) 141%. Moreover, the viability, T/C (second compound 0.0316 µM, first compound 0.0316 µM) is 106%; the viability, T/C (second compound 0.0316 µM, first compound 0.1 µM) is 99.5%; the viability, T/C (second compound 0.0316 µM, first compound 0.316 µM) was 90.9%; the viability, T/C (second compound 0.0316 µM, first compound 1 µM) is 99.1%; the viability, T/C (second compound 0.0316 µM, first compound 3.16 µM) is 101%; the viability, T/C (second compound 0.0316 µM, first compound 10 µM) is 133%. Besides, the viability, T/C runs as follows: (second compound 0.1 µM, first compound 0.0316 µM) 91.4%; (second compound 0.1 µM, first compound 0.1 µM) 98.7%; (second compound 0.1 µM, first compound 0.316 µM) 91.7%; (second compound 0.1 µM, first compound 1 µM) 90.3%; (second compound 0.1 µM, first compound 3.16 µM) 116%; (second compound 0.1 µM, first compound 10 µM) 141%. The viability, T/C was 86.4% (second compound 0.316 µM, first compound 0.0316 µM); 96.2% (second compound 0.316 µM, first compound 0.1 µM); 87.6% (second compound 0.316 µM, first compound 0.316 µM); 94.1% (second compound 0.316 µM, first compound 1 µM); 116% (second compound 0.316 µM, first compound 3.16 µM); 144% (second compound 0.316 µM, first compound 10 µM). Besides, the viability, T/C (second compound 1 µM, first compound 0.0316 µM) was 102%; the viability, T/C (second compound 1 µM, first compound 0.1 µM) was 109%; the viability, T/C (second compound 1 µM, first compound 0.316 µM) is 101%; the viability, T/C (second compound 1 µM, first compound 1 µM) is 105%; the viability, T/C (second compound 1 µM, first compound 3.16 µM) was 114%; the viability, T/C (second compound 1 µM, first compound 10 µM) is 134%.

For `CCCS(=O)(=O)Nc1ccc(F)c(C(=O)c2c[nH]c3ncc(-c4ccc(Cl)cc4)cc23)c1F`, the viability, T/C by setting is: (compound 0.0316 µM) 96.5% and 102%; (compound 0.1 µM) 89.8% and 97.6%; (compound 0.316 µM) 101% and 98.8%; (compound 1 µM) 92.3% and 99%; (compound 3.16 µM) 115% and 116%; (compound 10 µM) 97.3% and 81.5%. Besides, the IC50 (curve of compound) is above 10 µM.

For the origin of these results see PubChem BioAssay AID2060343 (Molecular Pharmacology Branch, DTP, NCI, 2025).
